Here are results for twelve compounds from patent US12421226B2, “Heteroaryl compounds as necrosis inhibitors, composition and method using the same” (Accro Bioscience (HK), priority 2019, dated 2025).

pIC50: −log10 of the molar value.

One assay concerns HT29 cells. As to the kind of experiment: Necroptosis inhibition in HT29 cell assay (TNF-α/Smac mimetic/z-VAD induced, cell viability). Type of assay: cell-based. Particulars: then TNF-α 40 ng/mL + Smac mimetic 100 nM + z-VAD 20 μM for 48 hours. As for the experimental part: 1. Compounds Tested for Necroptosis Inhibition Activities in HT29 Cell Assay
For this assay, HT29 cells were added to 96-well plates and then were pre-treated with 10 μM of the test compound for one hour. Then the cells were treated with tumor necrosis factor alpha (TNF-α, 40 ng/mL), Smacmimetic (cIAP inhibitor) (100 nM) and z-VAD (capase inhibitor, from calbiochem) (20 μM) for 48 hours, and the viability of cells was quantified. DMSO pretreatment group was used as negative controls, Nec-1 (known necroptosis inhibitor, from Biomol) pretreatment group was used as positive controls.

The test system of assay [1] is L929 mouse skin fibroblast cells. Put plainly: Necroptosis inhibition in L929 cell assay (TNF-α/z-VAD induced, cell viability by ATP levels). Format: cell-based. Conditions: 1 h pre-treatment with compound, then TNF-α 40 ng/mL + z-VAD 20 μM for 48 hours. The procedure:
2. Compounds Tested for Necroptosis Inhibition Activities in L929 Cell Assay
Mouse L929 mouse skin fibroblast cells were added to 96-well plates and then were pre-treated with 10 μM of the test compound for one hour. Then the cells were treated with TNF-α (40 ng/mL, lab-made) and z-VAD (capase inhibitor, from calbiochem) (20 μM) for 48 hours, and the viability of cells was quantified by detecting adenosine triphosphate (ATP) levels. DMSO pretreatment group was used as negative controls, Nec-1 (known necroptosis inhibitor, from Biomol) pretreatment group was used as positive controls.

The mark [2] stands for this setting: Homo sapiens, HT-29, 1 h pre-treatment with compound.

A word on the pIC50: it is −log10 of the IC50, conventionally taken in molar units. Consider `O=C(Nc1nc2ccc(-c3cnc4ccn(C(=O)NC5CCCCC5)c4c3)cc2s1)C1CC1` [Compound C33, N-cyclohexyl-6-[2-(cyclopropanecarbonylamino)-1,3-benzothiazol-6-yl]pyrrolo[3,2-b]pyridine-1-carboxamide], for which the values for the pIC50 (in the assay on HT29 cells (setting [2]); in assay [1] (Mus musculus)) were 8.34 and 9.52, respectively.

For the compound `O=C(Nc1cn2cc(-c3cnc4ccn(C(=O)OC5CCOCC5)c4c3)ccc2n1)C1CC1` [Compound C6, tetrahydropyran-4-yl 6-[2-(cyclopropanecarbonylamino)imidazo-[1,2-a]pyridin-6-yl]pyrrolo[3,2-b]pyridine-1-carboxylate], the pIC50 with HT29 cells (setting [2]) is 7.25; in assay [1] (Mus musculus) it was 7.30.

In the case of `O=C(Nc1nc2ccc(-c3cnc4ccn(C(=O)OC5CCC(F)(F)CC5)c4c3)cc2s1)C1CC1` [Compound C4, (4,4-difluorocyclohexyl) 6-[2-(cyclopropanecarbonylamino)-1,3-benzothiazol-6-yl]pyrrolo[3,2-b]pyridine-1-carboxylate], the values for the pIC50 (in the assay on HT29 cells (setting [2]); in assay [1] (Mus musculus)) were 7.08 and 8.49, respectively.

`O=C(NC1CCOCC1)c1csc2ncc(-c3ccc4nc(NC(=O)C5CC5)sc4c3)cc12` [Compound C12, 5-[2-(cyclopropanecarbonylamino)-1,3-benzothiazol-6-yl]-N-tetrahydropyran-4-yl-thieno[2,3-b]pyridine-3-carboxamide]: the pIC50 in the assay with HT29 cells (setting [2]) was 8.14; in assay [1] (Mus musculus) it was 8.82.

Consider `O=C(NC1CCC(F)(F)CC1)c1nsc2ncc(-c3ccc4nc(NC(=O)C5CC5)sc4c3)cc12` [Compound C30, 5-[2-(cyclopropanecarbonylamino)-1,3-benzothiazol-6-yl]-N-(4,4-difluorocyclohexyl)isothiazolo[5,4-b]pyridine-3-carboxamide], for which the pIC50 was 8.00 with HT29 cells (setting [2]) and 9.10 in assay [1] (Mus musculus).

Consider `O=C(Nc1nc2ccc(-c3cnc4ccn(C(=O)OC5CCOCC5)c4c3)nc2s1)C1CC1` [Compound C3, tetrahydropyran-4-yl 6-[2-(cyclopropanecarbonylamino)thiazolo[5,4-b]pyridin-5-yl]pyrrolo[3,2-b]pyridine-1-carboxylate], for which the pIC50 with HT29 cells (setting [2]) is 8.02; in assay [1] (Mus musculus) it was 7.14.

Turning to `O=C(Nc1nc2ccc(-c3cnc4ccn(C(=O)OC5CCOCC5)c4c3)cc2s1)C1CC1` [Compound C5, tetrahydropyran-4-yl 6-[2-(cyclopropanecarbonylamino)-1,3-benzothiazol-6-yl]pyrrolo[3,2-b]pyridine-1-carboxylate], the pIC50 was 8.25 in the assay on HT29 cells (setting [2]) and 7.77 in assay [1] (Mus musculus).

For `O=C(Nc1nc2ccc(-c3cnc4ccn(C(=O)CC5CCOCC5)c4c3)cc2s1)C1CC1` [Compound C8, N-[6-[1-(2-tetrahydropyran-4-ylacetyl)pyrrolo[3,2-b]pyridin-6-yl]-1,3-benzothiazol-2-yl]cyclopropanecarboxamide], the pIC50 is 6.36 with HT29 cells (setting [2]) and 7.77 in assay [1] (Mus musculus).

For `O=C(NC1CCOCC1)c1nsc2ncc(-c3ccc4nc(NC(=O)C5CC5)sc4c3)cc12` [Compound C14, 5-[2-(cyclopropanecarbonylamino)-1,3-benzothiazol-6-yl]-N-tetrahydropyran-4-yl-isothiazolo[5,4-b]pyridine-3-carboxamide], the pIC50 was 8.33 in the assay on HT29 cells (setting [2]) and 8.89 in assay [1] (Mus musculus).

With `CNC(=O)Nc1nc2ccc(-c3cnc4scc(C(=O)NC5CCCCC5)c4c3)cc2s1` [Compound C20, N-cyclohexyl-5-[2-(methylcarbamoylamino)-1,3-benzothiazol-6-yl]thieno[2,3-b]pyridine-3-carboxamide], the values for the pIC50 (in the assay on HT29 cells (setting [2]); in assay [1] (Mus musculus)) were 8.80 and 9.22, respectively.

In the case of `CN1C(=O)C(Cc2c[nH]c3ccccc23)NC1=S` (stereo not drawn) [Nec-1, reference compound], the negative logarithm of the IC50 (pIC50) in the assay on HT29 cells (1 h pre-treatment with compound) was 6.52; in assay [1] it was 5.90.

On to `O=C(NC1CCCCC1)c1csc2ncc(-c3ccc4nc(NC(=O)C5CC5)sc4c3)cc12` [Compound C18, N-cyclohexyl-5-[2-(cyclopropanecarbonylamino)-1,3-benzothiazol-6-yl]thieno[2,3-b]pyridine-3-carboxamide], for which the pIC50 was 9.00 in the assay with HT29 cells (setting [2]) and 9.52 in assay [1] (Mus musculus).
